ChEMBL document CHEMBL4130462, “Natural isoflavone biochanin A as a template for the design of new and potent 3-phenylquinolone efflux inhibitors against Mycobacterium avium” (Eur J Med Chem, 2017)
≈ marks a conversion by molar mass, not a printed value.

Tests used:
[1] = test system: Mycobacterium avium; test: Antimycobacterial activity against Mycobacterium avium ATCC 25291 assessed as reduction in bacterial viability incubated for 3 days by MTT assay; format: organism-based; conditions: mycobacterium avium subsp. avium atcc 25291, 72 h
[2] = test system: Mycobacterium avium; test: Antimycobacterial activity against Mycobacterium avium isolate MAV1 assessed as reduction in bacterial viability incubated for 3 days by MTT assay; format: organism-based; conditions: in vitro, 72 h
[3] = test system: Mycobacterium avium; test: Antimycobacterial activity against Mycobacterium avium isolate MAV4 assessed as reduction in bacterial viability incubated for 3 days by MTT assay; format: organism-based; conditions: 72 h
[4] = Cytotoxicity in human monocyte-derived macrophages assessed as reduction in cell viability incubated for 3 days by alamar blue dye based assay; parameters: species or system Macrophage cell line; conditions: for CC50 at 72 h: human monocyte-derived macrophages; for MTC: macrophage cell line, 72 h
[5] = test system: Mycobacterium avium; conditions: 72 h
Description: Antimycobacterial activity against Mycobacterium avium 104 assessed as reduction in bacterial viability incubated for 3 days by MTT assay

[6] = test system: Mycobacterium avium; conditions: 104 mc'2 3
[7] = test system: Mycobacterium avium; conditions: isolate MAV1
[8] = test system: Mycobacterium avium; conditions: isolate MAV2
Description: Inhibition of multidrug resistance efflux pump in Mycobacterium avium isolate MAV2 assessed as potentiation of clarithromycin -induced antibacterial activity by measuring clarithromycin MIC at 1/2 MIC incubated for 3 days by MTT assay (Rvb = >1024 ug/ml)

[9] = test system: Mycobacterium avium; conditions: 104
[10] = test system: Mycobacterium avium; conditions: 104 mc'2 4
[11] = test system: Mycobacterium avium; conditions: isolate MAV1; remark: listed apart in the source
[12] = test system: Mycobacterium avium; conditions: isolate MAV4
[13] = test system: Mycobacterium avium; conditions: isolate MAV4; remark: listed apart in the source
[14] = test system: Mycobacterium avium; conditions: 104; remark: listed apart in the source
[15] = test system: Mycobacterium avium; conditions: 104 mc'2 3; remark: listed apart in the source
[16] = test system: Mycobacterium avium; conditions: 104 mc'2 4; remark: listed apart in the source
[17] = test system: Mycobacterium avium; conditions: isolate MAV1; remark: listed apart in the source
[18] = test system: Mycobacterium avium; conditions: isolate MAV2; remark: listed apart in the source
[19] = test system: Mycobacterium avium; conditions: isolate MAV4; remark: listed apart in the source
[20] = test system: Mycobacterium avium subsp. avium ATCC 25291
[21] = test system: Mycobacterium avium; conditions: 104 mc'2 3; remark: listed apart in the source
[22] = test system: Mycobacterium avium; conditions: 104 mc'2 3; remark: listed apart in the source
[23] = test system: Mycobacterium avium; conditions: 104 mc'2 4; remark: listed apart in the source
[24] = test system: Mycobacterium avium; conditions: isolate MAV3
[25] = test system: Mycobacterium avium; conditions: isolate MAV4; remark: listed apart in the source
[26] = test system: Mycobacterium avium subsp. avium ATCC 25291; remark: listed apart in the source
[27] = test system: Mycobacterium avium subsp. avium ATCC 25291; remark: listed apart in the source
[28] = test system: Mycobacterium avium; conditions: 104 mc'2 4; remark: listed apart in the source
[29] = test system: Mycobacterium avium; conditions: isolate MAV1; remark: listed apart in the source
Description: Inhibition of multidrug resistance efflux pump in Mycobacterium avium isolate MAV1 assessed as potentiation of ofloxacin-induced antibacterial activity by measuring ofloxacin MIC at 1/2 MIC incubated for 3 days by MTT assay (Rvb = 4 ug/ml)

[30] = test system: Mycobacterium avium; conditions: isolate MAV2; remark: listed apart in the source
Description: Inhibition of multidrug resistance efflux pump in Mycobacterium avium isolate MAV2 assessed as potentiation of ofloxacin-induced antibacterial activity by measuring ofloxacin MIC at 1/4 MIC incubated for 3 days by MTT assay

[31] = test system: Mycobacterium avium; conditions: isolate MAV4; remark: listed apart in the source
[32] = test system: Mycobacterium avium subsp. avium ATCC 25291; remark: listed apart in the source
[33] = test system: Mycobacterium avium subsp. avium ATCC 25291; remark: listed apart in the source
[34] = test system: Mycobacterium avium; conditions: 104; remark: listed apart in the source
[35] = test system: Mycobacterium avium; conditions: 104; remark: listed apart in the source
[36] = test system: Mycobacterium avium; conditions: 104 mc'2 3; remark: listed apart in the source
[37] = test system: Mycobacterium avium; conditions: 104 mc'2 4; remark: listed apart in the source
[38] = test system: Mycobacterium avium; conditions: isolate MAV3; remark: listed apart in the source
[39] = test system: Mycobacterium avium; conditions: isolate MAV4; remark: listed apart in the source
Description: Inhibition of multidrug resistance efflux pump in Mycobacterium avium isolate MAV4 assessed as potentiation of ethidium bromide-induced antibacterial activity by measuring ethidium bromide MIC at 1/4 MIC incubated for 3 days by MTT assay

[40] = test system: Mycobacterium avium subsp. avium ATCC 25291; remark: listed apart in the source
Description: Inhibition of multidrug resistance efflux pump in Mycobacterium avium ATCC 25291 assessed as potentiation of ethidium bromide-induced antibacterial activity by measuring ethidium bromide MIC at 1/2 MIC incubated for 3 days by MTT assay (Rvb = 50 ug/ml)

[41] = Safety index, ratio of MTC for test compound to MTC for thioridazine for cytotoxicity in human monocyte-derived macrophages; format: cell-based, Macrophage cell line
[42] = Safety index, ratio of MTC for test compound to MTC for chlorpromazine for cytotoxicity in human monocyte-derived macrophages; format: cell-based, Macrophage cell line

CN(C)CCCN1c2ccccc2Sc2ccc(Cl)cc21 [CHLORPROMAZINE]
MIC [1]: 30 µg/mL (≈ 94.1 µM) | MIC [2]: 30 µg/mL (≈ 94.1 µM) | MIC [3]: 30 µg/mL (≈ 94.1 µM) | CC50 at 72 h [4]: 22.2 µM | MTC [4]: 1.25 µM | MIC [5]: 30 µg/mL (≈ 94.1 µM) | MIC [6]: > 512 µg/mL | MIC [7]: 0.0625 µg/mL (≈ 0.196 µM) | MIC [8]: > 512 µg/mL | MIC [9]: 64 µg/mL (≈ 201 µM) | MIC [10]: 128 µg/mL (≈ 401 µM) | MIC [11]: < 4 µg/mL | MIC [12]: 32 µg/mL (≈ 100 µM) | MIC [13]: 128 µg/mL (≈ 401 µM) | MIC [14]: 64 µg/mL (≈ 201 µM) | MIC [15]: < 4 µg/mL | MIC [16]: > 512 µg/mL | MIC [17]: < 4 µg/mL | MIC [18]: > 512 µg/mL | MIC [19]: 16 µg/mL (≈ 50.2 µM) | MIC [20]: 16 µg/mL (≈ 50.2 µM) | MIC [21]: 1 µg/mL (≈ 3.14 µM) | MIC [22]: 4 µg/mL (≈ 12.5 µM) | MIC [23]: 0.25 µg/mL (≈ 0.784 µM) | MIC [24]: 1 µg/mL (≈ 3.14 µM) | MIC [25]: 2 µg/mL (≈ 6.27 µM) | MIC [26]: < 0.25 µg/mL | MIC [27]: 16 µg/mL (≈ 50.2 µM) | MIC [28]: 8 µg/mL (≈ 25.1 µM) | MIC [29]: < 0.0625 µg/mL | MIC [30]: 2 µg/mL (≈ 6.27 µM) | MIC [31]: 2 µg/mL (≈ 6.27 µM) | MIC [32]: < 0.5 µg/mL | MIC [33]: 8 µg/mL (≈ 25.1 µM) | MIC [34]: 3.12 µg/mL (≈ 9.8 µM) | MIC [35]: 6.25 µg/mL (≈ 19.6 µM) | MIC [36]: 0.78 µg/mL (≈ 2.45 µM) | MIC [37]: 6.25 µg/mL (≈ 19.6 µM) | MIC [38]: 12.5 µg/mL (≈ 39.2 µM) | MIC [39]: 12.5 µg/mL (≈ 39.2 µM) | MIC [40]: < 0.39 µg/mL

CCCOc1ccc(-c2cn(CCN3CCCCC3)c3ccccc3c2=O)cc1
MIC [1]: 256 µg/mL (≈ 656 µM) | MIC [2]: 128 µg/mL (≈ 328 µM) | MIC [3]: 256 µg/mL (≈ 656 µM) | CC50 at 72 h [4]: 82.2 µM | MTC [4]: 40 µM | selectivity ratio [41]: 4 to 6 | selectivity ratio [42]: 2 to 4 | MIC [5]: > 256 µg/mL | MIC [6]: 256 µg/mL (≈ 656 µM) | MIC [7]: 0.25 µg/mL (≈ 0.64 µM) | MIC [8]: 256 µg/mL (≈ 656 µM) | MIC [9]: < 0.125 µg/mL | MIC [10]: < 4 µg/mL | MIC [11]: < 4 µg/mL | MIC [12]: < 4 µg/mL | MIC [13]: < 4 µg/mL | MIC [14]: < 0.125 µg/mL | MIC [15]: < 4 µg/mL | MIC [16]: 512 µg/mL (≈ 1310 µM) | MIC [17]: < 4 µg/mL | MIC [18]: 256 µg/mL (≈ 656 µM) | MIC [19]: < 4 µg/mL | MIC [20]: 8 µg/mL (≈ 20.5 µM) | MIC [21]: < 0.125 µg/mL | MIC [22]: 2 µg/mL (≈ 5.12 µM) | MIC [23]: < 0.125 µg/mL | MIC [24]: 1 µg/mL (≈ 2.56 µM) | MIC [25]: < 0.25 µg/mL | MIC [26]: < 0.25 µg/mL | MIC [27]: 8 µg/mL (≈ 20.5 µM) | MIC [28]: 4 µg/mL (≈ 10.2 µM) | MIC [29]: < 0.0625 µg/mL | MIC [30]: 4 µg/mL (≈ 10.2 µM) | MIC [31]: < 0.125 µg/mL | MIC [32]: < 0.5 µg/mL | MIC [33]: 8 µg/mL (≈ 20.5 µM) | MIC [34]: < 0.195 µg/mL | MIC [35]: < 0.195 µg/mL | MIC [36]: < 0.195 µg/mL | MIC [37]: 3.12 µg/mL (≈ 8 µM) | MIC [38]: 12.5 µg/mL (≈ 32 µM) | MIC [39]: 3.12 µg/mL (≈ 8 µM) | MIC [40]: < 0.39 µg/mL
